Laboratory results as given in ChEMBL document CHEMBL1149963, “Synthesis of a novel series of 3-oxo-2,4-dioxobicyclo[3.2.1]octanes: additional evidence for two thromboxane receptor subtypes” (Bioorg Med Chem Lett, 1994).

Columns and labels:
Thromboxane A2 receptor [1] = biological target: T1, Thromboxane A2 receptor (Homo sapiens, UniProt P21731); assay: Activity against thromboxane A2 receptor evaluated by aggregation of human platelets at 0-10 uM; Not active
T1 sequence (P21731 whole entry): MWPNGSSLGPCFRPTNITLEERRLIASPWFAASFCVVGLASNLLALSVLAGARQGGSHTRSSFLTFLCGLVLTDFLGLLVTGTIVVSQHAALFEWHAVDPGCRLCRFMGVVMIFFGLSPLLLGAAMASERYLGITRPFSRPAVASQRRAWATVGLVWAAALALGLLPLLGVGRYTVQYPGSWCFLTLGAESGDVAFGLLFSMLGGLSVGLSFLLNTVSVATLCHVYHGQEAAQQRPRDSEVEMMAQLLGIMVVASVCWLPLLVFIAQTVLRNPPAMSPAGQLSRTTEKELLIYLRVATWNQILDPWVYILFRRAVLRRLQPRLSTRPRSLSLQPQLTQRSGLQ

Thromboxane A2 receptor [2] = biological target: T2, Thromboxane A2 receptor (Rattus norvegicus, UniProt P34978); assay: Activity against thromboxane A2 receptor evaluated by contraction of isolated rat thoracic aorta; type: tissue-based
T2 sequence (P34978 whole entry): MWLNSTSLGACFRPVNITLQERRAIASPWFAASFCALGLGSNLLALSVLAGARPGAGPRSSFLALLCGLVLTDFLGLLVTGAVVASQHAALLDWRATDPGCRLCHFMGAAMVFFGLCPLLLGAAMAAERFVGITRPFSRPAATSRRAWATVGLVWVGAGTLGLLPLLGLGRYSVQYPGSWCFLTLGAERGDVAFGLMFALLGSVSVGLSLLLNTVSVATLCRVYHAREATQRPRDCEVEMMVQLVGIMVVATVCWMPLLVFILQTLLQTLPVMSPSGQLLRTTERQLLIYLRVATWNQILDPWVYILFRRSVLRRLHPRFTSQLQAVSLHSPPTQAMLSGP

| SMILES | EC50 (Thromboxane A2 receptor [1]) | EC50 (Thromboxane A2 receptor [2]) [nM] |
| --- | --- | --- |
| CCCCCC(O)/C=C/[C@@H]1[C@@H](C/C=C\CCCC(=O)NC(C)C)[C@@H]2C[C@H]1OC(=O)O2 (stereo partly specified) | Not Active | 324 |
| CCCCCC(O)/C=C/[C@@H]1[C@@H](C/C=C\CCCC(=O)O)[C@@H]2C[C@H]1OC(=O)O2 (stereo partly specified) | – | 0.23 |
| CCCCCC(O)/C=C/[C@@H]1[C@@H](C/C=C\CCCC(N)=O)[C@@H]2C[C@H]1OC(=O)O2 (stereo partly specified) | – | 58 |
| CCCCCC(O)/C=C/[C@@H]1[C@@H](C/C=C\CCCCO)[C@@H]2C[C@H]1OC(=O)O2 (stereo partly specified) | Not Active | 1 |
